Tests used:
sulphonamide antibodies [1] = experiment: Multi-sulphonamide competitive immunoassay, antibodies on APTES ceramic substrates with dihydrazide linker, with or without periodate activation; type: binding
Description: Multi-sulphonamide standards (200 µl) and a cocktail of sulphonamide horseradish peroxidase conjugates (100 µl) were added to the reaction wells containing the device as appropriate and incubated for 15 minutes at room temperature. The standards contained 5, 10, 50 and 100 ng/ml for each of the 12 sulphonamides.
Thereafter the multi-sulphonamide devices were washed with PBS/PEG buffer to remove excess reagents and 300 µl chemiluminescent substrate [luminol (1.4mM)/urea hydrogen peroxide (9.6mM)] per device was introduced. The devices were imaged using a CCD camera with an exposure time of up to 4 minutes. Standard curves were obtained for each of the 12 individual sulphonamides. Calibration curves for each of the 12 individual sulphonamides are represented graphically in Figure 15. The % B/Bo value plotted on the Y-axis represents the % […] of the zero standard RLU (Relative light unit) value caused by each individual sulphonamide standard (plotted on the X-axis as log10).
In a further example, ceramic substrates silanated with APTES were reacted with a dihydrazide linker. Sulphonamide antibodies were treated with sodium periodate to render them reactive towards the hydrazide linker. Control sulphonamide antibodies were simply dialysed against sodium acetate buffer pH 5.5. The RLU results are shown in Tables 4 (not treated) and 5 (treated by periodate method). […] The control antibodies (no periodate activation) gave very poor standard curves when compared to the covalently immobilised sulphonamide antibodies.

sulphonamide antibodies [2] = experiment: Multi-sulphonamide competitive immunoassay in microchannels, chemiluminescent CCD detection (Example 3); type: binding; conditions: microchannel device, 2 minutes incubation
Description: In contrast to Example 1, a multi-sulphonamide assay has also been conducted using microchannels. The device is illustrated in Figure 11. In this Example, the reagent addition reservoirs 21 are 2 mm x 2 mm, and 300 µm deep (vol. 1.2 µl), the channels 23 are each 5 mm long, 200 µm wide and 100 µm deep (vol. 100 nl), and the reservoir 24 is 1.9 mm x 8.6 mm, and 300 µm deep (vol. 4.9 µl).
The chemical modification of the surface was performed as described in Example 1. Antibody was added to each of the channels and incubated for 2 hours at 37°C. The substrates were then blocked and washed as for Example 1.
A multi-sulphonamide standard (200 µl) and sulphonamide horseradish pexoxidase conjugates (100 µl) were mixed. 1 µl of the resultant reagent was pipetted into each of the reservoirs supplying the antibody-coated channel for each sulphonamide. The standards contained 10 or 100 ng/ml of all the sulphonamides as appropriate.
The reagent flowed by capillary action. After incubation for 2 minutes, the substrate was washed 5 times with PBS/PEG and chemiluminescent reagent [luminol (1.4 mM)/urea hydrogen peroxide (9.6 mM)] was added.
The devices were imaged using a CCD camera with an exposure time of up to 4 minutes.

[3] = 10 ng/ml standard, antibodies treated by periodate method, covalently immobilised (Table 5)
[4] = 10 ng/ml standard, control antibodies not treated with periodate (Table 4)
[5] = 100 ng/ml standard, antibodies treated by periodate method, covalently immobilised (Table 5)
[6] = 100 ng/ml standard, control antibodies not treated with periodate (Table 4)

| Structure (SMILES) | % B/Bo (sulphonamide antibodies [1]; [3]) | % B/Bo (sulphonamide antibodies [1]; [4]) | % B/Bo (sulphonamide antibodies [1]; [5]) | % B/Bo (sulphonamide antibodies [2]; 10 ng/ml standard) | % B/Bo (sulphonamide antibodies [2]; 100 ng/ml standard) | % B/Bo (sulphonamide antibodies [1]; [6]) |
| --- | --- | --- | --- | --- | --- | --- |
| Cc1nnc(NS(=O)(=O)c2ccc(N)cc2)s1 [Sulphamethizole, sulphamethizole] | 33% | 36% | 28% | – | – | – |
| Cc1ccnc(NS(=O)(=O)c2ccc(N)cc2)n1 [Sulphamerazine, sulphamerazine] | 43% | 52% | 26% | 40% | 22% | 56% |
| COc1cc(NS(=O)(=O)c2ccc(N)cc2)nc(OC)n1 [Sulphadimethoxine, sulphadimethoxine] | 46% | – | 36% | – | – | 97% |
| COc1ccc(NS(=O)(=O)c2ccc(N)cc2)nn1 [Sulphamethoxypyridazine, sulphamethoxypyridazine] | 74% | 84% | 40% | 28% | 15% | – |
| COc1ncnc(NS(=O)(=O)c2ccc(N)cc2)c1OC [Sulphadoxine, sulphadoxine] | 31% | 51% | 20% | – | – | – |
| Nc1ccc(S(=O)(=O)Nc2nccs2)cc1 [Sulphathiazole, sulphathiazole] | 32% | 28% | 16% | – | – | – |
| Cc1noc(NS(=O)(=O)c2ccc(N)cc2)c1C [Sulphisoxazole, sulphisoxazole] | 27% | 23% | 9% | – | – | – |
| Cc1cc(C)nc(NS(=O)(=O)c2ccc(N)cc2)n1 [Sulphamethazine, sulphamethazine] | 77% | – | 61% | 14% | 7% | – |
| Nc1ccc(S(=O)(=O)Nc2cnc3ccccc3n2)cc1 [Sulphaquinoxaline, sulphaquinoxaline] | 58% | 79% | 53% | 56% | 24% | 93% |
| Nc1ccc(S(=O)(=O)Nc2ccc(Cl)nn2)cc1 [Sulphachloropyridazine, sulphachloropyridazine] | 30% | 24% | 8% | – | – | – |

— EP0874242A1, “Device and apparatus for the simultaneous detection of multiple analytes” (Randox Laboratories Ltd., priority 1997, dated 1998)
